Data as given in PubChem BioAssay AID1963443 (Molecular Pharmacology Branch, DTP, NCI, 2024).

System: MDA-MB-231 complex spheroids, growth inhibition
Experiment: Anticancer human tumor MDA-MB-231 cell line growth inhibition [Asc];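 note: spheroids exposed to compounds for 7 days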
Conditions: for IC50: curve of first compound; for viability, T/C: stronger effect = lower value
Method in brief: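 Complex solid-tumor spheroids incorporating human endothelial and mesenchymal stem cells received single agents or combinations over half-log dilution ranges anchored to clinical Cmax.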

[1] = second compound 0.01 µM, first compound 0.0316 µM
[2] = second compound 0.01 µM, first compound 0.1 µM
[3] = second compound 0.01 µM, first compound 0.316 µM
[4] = second compound 0.01 µM, first compound 1 µM
[5] = second compound 0.01 µM, first compound 3.16 µM
[6] = second compound 0.01 µM, first compound 10 µM
[7] = second compound 0.0316 µM, first compound 0.0316 µM
[8] = second compound 0.0316 µM, first compound 0.1 µM
[9] = second compound 0.0316 µM, first compound 0.316 µM
[10] = second compound 0.0316 µM, first compound 1 µM
[11] = second compound 0.0316 µM, first compound 3.16 µM
[12] = second compound 0.0316 µM, first compound 10 µM
[13] = second compound 0.1 µM, first compound 0.0316 µM
[14] = second compound 0.1 µM, first compound 0.1 µM
[15] = second compound 0.1 µM, first compound 0.316 µM
[16] = second compound 0.1 µM, first compound 1 µM
[17] = second compound 0.1 µM, first compound 3.16 µM
[18] = second compound 0.1 µM, first compound 10 µM
[19] = second compound 0.316 µM, first compound 0.0316 µM
[20] = second compound 0.316 µM, first compound 0.1 µM
[21] = second compound 0.316 µM, first compound 0.316 µM
[22] = second compound 0.316 µM, first compound 1 µM
[23] = second compound 0.316 µM, first compound 3.16 µM
[24] = second compound 0.316 µM, first compound 10 µM
[25] = second compound 1 µM, first compound 0.0316 µM
[26] = second compound 1 µM, first compound 0.1 µM
[27] = second compound 1 µM, first compound 0.316 µM
[28] = second compound 1 µM, first compound 1 µM
[29] = second compound 1 µM, first compound 3.16 µM
[30] = second compound 1 µM, first compound 10 µM

In the case of `C#Cc1c(F)ccc2cc(O)cc(-c3ncc4c(N5CC6CCC(C5)N6)nc(OCC56CCCN5CC(F)C6)nc4c3F)c12` (centres undefined) + CNC(C)C(=O)NC1CN(S(=O)(=O)c2cccc(S(=O)(=O)N3CCC4CCC(C(=O)NC(c5ccccc5)c5ccccc5)N4C(=O)C(NC(=O)C(C)NC)C3)c2)CCC2CCC(C(=O)NC(c3ccccc3)c3ccccc3)N2C1=O, the IC50 (second compound 0.00316 µM) is reported as < 31.6 nM, the IC50 (second compound 0.01 µM) is reported as < 31.6 nM and the IC50 (second compound 0.0316 µM) is reported as < 31.6 nM. The IC50 (second compound 0.1 µM) was < 31.6 nM, the IC50 (second compound 0.316 µM) was 3780 nM and the IC50 (second compound 1 µM) was 2970 nM. It also gave a viability, T/C (second compound 0.00316 µM, first compound 0.0316 µM) of 4.06%, a viability, T/C (second compound 0.00316 µM, first compound 0.1 µM) of 5.16% and a viability, T/C (second compound 0.00316 µM, first compound 0.316 µM) of 5.29%. For the same molecule, the viability, T/C (second compound 0.00316 µM, first compound 1 µM) was 3.82%, the viability, T/C (second compound 0.00316 µM, first compound 3.16 µM) was 2.11% and the viability, T/C (second compound 0.00316 µM, first compound 10 µM) was 1.85%. The viability, T/C [1] was 1.96%, the viability, T/C [2] was 2.54% and the viability, T/C [3] was 2.18%. It also gave a viability, T/C [4] of 3.28%, a viability, T/C [5] of 2.31% and a viability, T/C [6] of 1.91%. For the same molecule, the viability, T/C [7] was 1.62%, the viability, T/C [8] was 2.61% and the viability, T/C [9] was 2.63%. For the same molecule, the viability, T/C [10] was 1.93%, the viability, T/C [11] was 2.58% and the viability, T/C [12] was 1.22%. For the same molecule, the viability, T/C [13] was 1.38%, the viability, T/C [14] was 1.67% and the viability, T/C [15] was 1.43%. It also gave a viability, T/C [16] of 1.74%, a viability, T/C [17] of 1.84% and a viability, T/C [18] of 2.09%. The viability, T/C [19] was 112%, the viability, T/C [20] was 94.9% and the viability, T/C [21] was 96%. The viability, T/C [22] was 73%, the viability, T/C [23] was 51.6% and the viability, T/C [24] was 34.9%. It also gave a viability, T/C [25] of 99.6%, a viability, T/C [26] of 110% and a viability, T/C [27] of 97.2%. It also gave a viability, T/C [28] of 68.8%, a viability, T/C [29] of 53.4% and a viability, T/C [30] of 38.7%.
For `Cc1nc(N2CCC3(CC2)COC(C)C3N)c(CO)nc1Sc1ccnc(N)c1Cl` (centres undefined) + CNC(C)C(=O)NC1CN(S(=O)(=O)c2cccc(S(=O)(=O)N3CCC4CCC(C(=O)NC(c5ccccc5)c5ccccc5)N4C(=O)C(NC(=O)C(C)NC)C3)c2)CCC2CCC(C(=O)NC(c3ccccc3)c3ccccc3)N2C1=O, the IC50 (second compound 0.00316 µM) was < 9.49 nM, the IC50 (second compound 0.01 µM) was < 9.49 nM and the IC50 (second compound 0.0316 µM) was < 9.49 nM. The IC50 (second compound 0.1 µM) was < 9.49 nM, the IC50 (second compound 0.316 µM) was 496 nM and the IC50 (second compound 1 µM) was 487 nM. For the same molecule, the viability, T/C (second compound 0.00316 µM, first compound 0.00949 µM) was 6.2%, the viability, T/C (second compound 0.00316 µM, first compound 0.03 µM) was 3.59% and the viability, T/C (second compound 0.00316 µM, first compound 0.0949 µM) was 3.91%. The viability, T/C (second compound 0.00316 µM, first compound 0.3 µM) was 2.35%, the viability, T/C (second compound 0.00316 µM, first compound 0.949 µM) was 1.9% and the viability, T/C (second compound 0.00316 µM, first compound 3 µM) was 0.75%. For the same molecule, the viability, T/C (second compound 0.01 µM, first compound 0.00949 µM) was 3.06%, the viability, T/C (second compound 0.01 µM, first compound 0.03 µM) was 1.64% and the viability, T/C (second compound 0.01 µM, first compound 0.0949 µM) was 2.31%. For the same molecule, the viability, T/C (second compound 0.01 µM, first compound 0.3 µM) was 2.09%, the viability, T/C (second compound 0.01 µM, first compound 0.949 µM) was 1.16% and the viability, T/C (second compound 0.01 µM, first compound 3 µM) was 1.06%. For the same molecule, the viability, T/C (second compound 0.0316 µM, first compound 0.00949 µM) was 1.57%, the viability, T/C (second compound 0.0316 µM, first compound 0.03 µM) was 2.27% and the viability, T/C (second compound 0.0316 µM, first compound 0.0949 µM) was 1.35%. For the same molecule, the viability, T/C (second compound 0.0316 µM, first compound 0.3 µM) was 1%, the viability, T/C (second compound 0.0316 µM, first compound 0.949 µM) was 2.18% and the viability, T/C (second compound 0.0316 µM, first compound 3 µM) was 1.27%. For the same molecule, the viability, T/C (second compound 0.1 µM, first compound 0.00949 µM) was 1.75%, the viability, T/C (second compound 0.1 µM, first compound 0.03 µM) was 1.36% and the viability, T/C (second compound 0.1 µM, first compound 0.0949 µM) was 0.97%. For the same molecule, the viability, T/C (second compound 0.1 µM, first compound 0.3 µM) was 0.62%, the viability, T/C (second compound 0.1 µM, first compound 0.949 µM) was 1.23% and the viability, T/C (second compound 0.1 µM, first compound 3 µM) was 1.82%. It also gave a viability, T/C (second compound 0.316 µM, first compound 0.00949 µM) of 108%, a viability, T/C (second compound 0.316 µM, first compound 0.03 µM) of 101% and a viability, T/C (second compound 0.316 µM, first compound 0.0949 µM) of 108%. For the same molecule, the viability, T/C (second compound 0.316 µM, first compound 0.3 µM) was 86.6%, the viability, T/C (second compound 0.316 µM, first compound 0.949 µM) was 2.83% and the viability, T/C (second compound 0.316 µM, first compound 3 µM) was 0.94%. For the same molecule, the viability, T/C (second compound 1 µM, first compound 0.00949 µM) was 99.5%, the viability, T/C (second compound 1 µM, first compound 0.03 µM) was 113% and the viability, T/C (second compound 1 µM, first compound 0.0949 µM) was 99.9%. For the same molecule, the viability, T/C (second compound 1 µM, first compound 0.3 µM) was 83.4%, the viability, T/C (second compound 1 µM, first compound 0.949 µM) was 3.91% and the viability, T/C (second compound 1 µM, first compound 3 µM) was 0.93%.
For `O=C(c1cc(Cc2n[nH]c(=O)c3ccccc23)ccc1F)N1CCN(C(=O)C2CC2)CC1` + CNC(C)C(=O)NC1CN(S(=O)(=O)c2cccc(S(=O)(=O)N3CCC4CCC(C(=O)NC(c5ccccc5)c5ccccc5)N4C(=O)C(NC(=O)C(C)NC)C3)c2)CCC2CCC(C(=O)NC(c3ccccc3)c3ccccc3)N2C1=O, the IC50 (second compound 0.01 µM) was < 31.6 nM, the IC50 (second compound 0.0316 µM) was < 31.6 nM and the IC50 (second compound 0.1 µM) was < 31.6 nM. The IC50 (second compound 0.316 µM) was < 31.6 nM, the IC50 (second compound 1 µM) was < 31.6 nM and the viability, T/C [1] was 2.12%. It also gave a viability, T/C [2] of 2.15%, a viability, T/C [3] of 2.12% and a viability, T/C [4] of 2.46%. For the same molecule, the viability, T/C [5] was 1.41%, the viability, T/C [6] was 1.59% and the viability, T/C [7] was 1.57%. For the same molecule, the viability, T/C [8] was 1.69%, the viability, T/C [9] was 1.39% and the viability, T/C [10] was 1.53%. For the same molecule, the viability, T/C [11] was 1.35%, the viability, T/C [12] was 1.61% and the viability, T/C [13] was 1.25%. The viability, T/C [14] was 1.35%, the viability, T/C [15] was 1.63% and the viability, T/C [16] was 1.07%. The viability, T/C [17] was 1.04%, the viability, T/C [18] was 1.01% and the viability, T/C [19] was 1.03%. For the same molecule, the viability, T/C [20] was 1.15%, the viability, T/C [21] was 1.4% and the viability, T/C [22] was 1.07%. The viability, T/C [23] was 0.98%, the viability, T/C [24] was 0.83% and the viability, T/C [25] was 1.05%. It also gave a viability, T/C [26] of 1.48%, a viability, T/C [27] of 1.17% and a viability, T/C [28] of 0.97%. For the same molecule, the viability, T/C [29] was 0.82% and the viability, T/C [30] was 0.96%.
